Reference: patent US20250059188A1, “ARYLSULPHONAMIDE COMPOUNDS” (Anaxis Pharma Pty Ltd, priority 2021, published 2025)

Columns and labels:
human RIPK3 = human RIPK3 (Homo sapiens (Human), UniProt Q9Y572); assay: KINOMEscan binding assay, human RIPK3; details: equilibrium dissociation constant
Outline: (§1)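 Tagged kinase + immobilized ligand beads + compound; eluted kinase quantified by qPCR. Kinase source: T7 phage lysate (BL21-derived E. coli, 32 °C) or HEK-293 with DNA tag. 11-pt 3-fold series, 1% DMSO, top 30,000 nM (most). Hill fit, slope −1 → Kd.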

U937 cells = assay: Counter screen: U937 cell viability without TSQ cocktail (off-target effect); design: species or system human; details: Homo sapiens, U-937, compound without TSQ cocktail, read-out: Off-target effect (IC50 cell-based assay)
Outline: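 U937 cells (20,000/well) exposed to compound (10-point 1:3 titration from 36 μM, 0.3% DMSO) without TSQ cocktail for 48 h at 37 °C/5% CO2. Viability read as ATP by CellTiter-Glo luminescence; IC50 from 4-parameter logistic fit.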

human MLKL (full length) = human MLKL (full length) (Homo sapiens (Human), UniProt Q8NB16); assay: KINOMEscan binding assay, human MLKL (full length); details: equilibrium dissociation constant
Chain of human MLKL (full length) (Q8NB16 whole entry): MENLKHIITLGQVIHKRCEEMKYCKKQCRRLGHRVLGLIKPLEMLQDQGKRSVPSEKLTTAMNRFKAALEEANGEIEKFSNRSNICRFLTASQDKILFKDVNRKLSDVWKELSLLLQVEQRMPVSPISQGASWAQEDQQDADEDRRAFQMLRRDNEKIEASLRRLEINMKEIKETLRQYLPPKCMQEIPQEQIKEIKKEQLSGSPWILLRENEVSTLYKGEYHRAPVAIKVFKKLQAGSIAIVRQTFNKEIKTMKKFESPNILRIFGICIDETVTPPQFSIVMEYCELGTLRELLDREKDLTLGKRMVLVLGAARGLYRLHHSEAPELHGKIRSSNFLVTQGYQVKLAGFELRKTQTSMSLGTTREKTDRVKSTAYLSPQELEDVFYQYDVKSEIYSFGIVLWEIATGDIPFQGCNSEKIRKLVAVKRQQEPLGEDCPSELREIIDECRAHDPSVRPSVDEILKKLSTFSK
Outline: as §1

[1] = system: U937 human histiocytic leukemia cell line; assay: Inhibition of TSQ induced necroptosis in U937 cells (CellTitre-Glo); details: Homo sapiens, U-937, TSQ cocktail (TNF, Smac mimetic, Q-VD-OPh), 48 hours, read-out: Inhibition of TSQ-induced necroptosis (IC50 cell-based assay)
Outline: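 U937 cells (20000/well) treated with compound (10-point, 1:3 from 36 μM, 0.3% DMSO) plus TSQ cocktail (hTNF-Fc 100 ng/ml, Smac mimetic 500 nM, Q-VD-OPh 10 μM), 48 h at 37 °C. Viability by CellTiter-Glo luminescence; IC50 from 4-parameter logistic fit. Counter screen: same cells without TSQ.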

human RIPK1 = human RIPK1 (Homo sapiens (Human), UniProt Q13546); assay: KINOMEscan binding assay, human RIPK1; details: equilibrium dissociation constant
Chain of human RIPK1 (Q13546 whole entry): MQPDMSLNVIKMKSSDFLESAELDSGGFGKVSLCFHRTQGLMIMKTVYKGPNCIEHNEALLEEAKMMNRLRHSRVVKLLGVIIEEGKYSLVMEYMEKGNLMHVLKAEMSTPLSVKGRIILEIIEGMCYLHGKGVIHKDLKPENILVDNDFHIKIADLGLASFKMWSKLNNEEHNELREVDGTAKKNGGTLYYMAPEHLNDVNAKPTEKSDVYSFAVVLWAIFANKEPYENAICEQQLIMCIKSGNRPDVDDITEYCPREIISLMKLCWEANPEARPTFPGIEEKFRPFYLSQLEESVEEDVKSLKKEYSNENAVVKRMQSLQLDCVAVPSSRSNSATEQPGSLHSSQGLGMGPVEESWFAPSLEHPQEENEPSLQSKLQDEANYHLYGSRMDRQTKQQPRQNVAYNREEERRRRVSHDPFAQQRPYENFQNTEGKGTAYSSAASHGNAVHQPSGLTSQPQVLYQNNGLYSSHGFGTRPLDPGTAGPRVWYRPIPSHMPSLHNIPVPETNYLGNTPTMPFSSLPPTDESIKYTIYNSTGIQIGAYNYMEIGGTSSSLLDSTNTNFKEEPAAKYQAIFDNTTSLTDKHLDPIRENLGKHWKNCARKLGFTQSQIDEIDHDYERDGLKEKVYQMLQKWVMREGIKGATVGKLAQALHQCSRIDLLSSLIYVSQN
Outline: as §1

Chain of human RIPK3 (Q9Y572 whole entry): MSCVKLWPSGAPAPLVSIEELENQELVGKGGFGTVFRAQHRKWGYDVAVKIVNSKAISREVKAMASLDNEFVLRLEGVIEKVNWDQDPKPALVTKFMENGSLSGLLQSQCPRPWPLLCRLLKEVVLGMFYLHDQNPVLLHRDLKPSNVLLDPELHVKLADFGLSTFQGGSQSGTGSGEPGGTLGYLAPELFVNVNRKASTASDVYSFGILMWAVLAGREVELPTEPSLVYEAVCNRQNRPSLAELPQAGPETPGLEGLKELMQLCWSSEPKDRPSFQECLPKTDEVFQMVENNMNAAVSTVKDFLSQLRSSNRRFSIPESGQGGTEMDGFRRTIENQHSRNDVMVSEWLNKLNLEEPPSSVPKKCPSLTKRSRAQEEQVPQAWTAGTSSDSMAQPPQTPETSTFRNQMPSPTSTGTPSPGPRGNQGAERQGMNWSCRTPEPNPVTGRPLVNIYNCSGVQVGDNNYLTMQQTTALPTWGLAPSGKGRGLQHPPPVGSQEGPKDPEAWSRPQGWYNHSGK

SMILES	Kd (human RIPK3)	IC50 (U937 cells)	Kd (human MLKL (full length))	IC50 [1]	Kd (human RIPK1)
CC1C(n2cc(-c3cnc(N)c4c(-c5ccc(NS(=O)(=O)C(F)F)c(O[C@@H](C)c6ccc(F)cc6)c5)nn(C)c34)cn2)CN1C (stereo partly drawn) [Compound 147, N-(4-(4-amino-7-(1-(1,2-dimethylazetidin-3-yl)-1H-pyrazol-4-yl)-1-methyl-1H-pyrazolo[4,3-c]pyridin-3-yl)-2-((S)-1-(4-fluorophenyl)ethoxy)phenyl)-1,1-difluoromethanesulfonamide]	> 10000 nM	> 10000 nM	1 to 100 nM	10 to 1000 nM	> 10000 nM
Cc1c(-c2cnc(N)c3c(-c4ccc(NS(=O)(=O)C(F)F)c(O[C@@H](C)c5ccc(F)cc5)c4)nn(C)c23)cnn1C1CCN(C)C(C)(C)C1 (stereo partly drawn) [Compound 157, N-(4-(4-amino-1-methyl-7-(5-methyl-1-(1,2,2-trimethylpiperidin-4-yl)-1H-pyrazol-4-yl)-1H-pyrazolo[4,3-c]pyridin-3-yl)-2-((S)-1-(4-fluorophenyl)ethoxy)phenyl)-1,1-difluoromethanesulfonamide]	> 10000 nM	> 10000 nM	1 to 100 nM	10 to 1000 nM	> 10000 nM
C[C@H](Oc1cc(-c2nn(C)c3c(-c4cnn(C5C[C@H]6CNC[C@H]6C5)c4)cnc(N)c23)ccc1NS(=O)(=O)C(F)F)c1ccc(F)cc1 (stereo partly drawn) [Compound 163, N-(4-(4-amino-1-methyl-7-(1-((3aR,6aS)-octahydrocyclopenta[c]pyrrol-5-yl)-1H-pyrazol-4-yl)-1H-pyrazolo[4,3-c]pyridin-3-yl)-2-((S)-1-(4-fluorophenyl)ethoxy)phenyl)-1,1-difluoromethanesulfonamide]	> 10000 nM	> 10000 nM	< 1 nM	10 to 1000 nM	> 10000 nM
C[C@H](Oc1cc(-c2nn(C)c3c(-c4cnn(C5CCN(C)C6(CC6)C5)c4)cnc(N)c23)ccc1NS(=O)(=O)C(F)F)c1ccc(F)cc1 (stereo partly drawn) [Compound 145, N-(4-(4-amino-1-methyl-7-(1-(4-methyl-4-azaspiro[2.5]octan-7-yl)-1H-pyrazol-4-yl)-1H-pyrazolo[4,3-c]pyridin-3-yl)-2-((S)-1-(4-fluorophenyl)ethoxy)phenyl)-1,1-difluoromethanesulfonamide]	> 10000 nM	> 10000 nM	1 to 100 nM	< 10 nM	> 10000 nM
C[C@H](Oc1cc(-c2nn(C)c3c(C#CC4CCN(C)CC4)cnc(N)c23)ccc1NS(=O)(=O)C(F)F)c1ccc(F)cc1 [Compound 80, (S)—N-(4-(4-amino-1-methyl-7-((1-methylpiperidin-4-yl)ethynyl)-1H-pyrazolo[4,3-c]pyridin-3-yl)-2-(1-(4-fluorophenyl)ethoxy)phenyl)-1,1-difluoromethanesulfonamide]	> 10000 nM	> 10000 nM	< 1 nM	10 to 1000 nM	> 10000 nM
